What was measured:
Assay in all cases: KINOMEscan competition binding
Details in all cases: compound 10.0 µM
[1] = target: MAP3K3 (human) (UniProt Q99759)
[2] = target: KIT (human) (UniProt P10721)
[3] = target: MAPK12 (human) (UniProt P53778)
[4] = target: MAP2K1 (human) (UniProt Q02750)
[5] = target: MAP4K5 (human) (UniProt Q9Y4K4)
[6] = target: NEK1 (human) (UniProt Q96PY6)
[7] = test system: ABL1 (human), P00519 [Y253F]
[8] = target: RPS6KA4 KD1 (human) (UniProt O75676)
[9] = target: CAMK2A (human) (UniProt Q9UQM7)
[10] = target: MAPK14 (human) (UniProt Q16539)
[11] = target: CDK5 (human) (UniProt Q00535)
[12] = target: NUAK1 (human) (UniProt O60285)
[13] = target: DCLK2 (human) (UniProt Q8N568)
[14] = target: PIK3CD (human) (UniProt O00329)
[15] = target: CSNK1G3 (human) (UniProt Q9Y6M4)
[16] = target: PIM1 (human) (UniProt P11309)
[17] = target: DAPK2 (human) (UniProt Q9UIK4)
[18] = target: PRKCE (human) (UniProt Q02156)
[19] = target: MYLK2 (human) (UniProt Q9H1R3)
[20] = target: STK11 (human) (UniProt Q15831)
[21] = target: FER (human) (UniProt P16591)
[22] = target: FYN (human) (UniProt P06241)
[23] = target: PLK4 (human) (UniProt O00444)
[24] = target: PAK2 (human) (UniProt Q13177)
[25] = target: TYK2 JH1 catalytic (human) (UniProt P29597)
[26] = target: CDC42BPB (human) (UniProt Q9Y5S2)
[27] = test system: FLT3 (human), P36888 [D835H]
[28] = target: STK35 (human) (UniProt Q8TDR2)
[29] = target: BRSK1 (human) (UniProt Q8TDC3)
[30] = target: MKNK1 (human) (UniProt Q9BUB5)
[31] = target: MAP3K10 (human) (UniProt Q02779)
[32] = target: JAK1 JH1 catalytic (human) (UniProt P23458)
[33] = target: MAP3K6 (human) (UniProt O95382)
[34] = test system: MET (human), P08581 [Y1235D]
[35] = target: GRK4 (human) (UniProt P32298)
[36] = target: MAP3K2 (human) (UniProt Q9Y2U5)

MAPK14 (human), sequence (Q16539 whole entry, looked up): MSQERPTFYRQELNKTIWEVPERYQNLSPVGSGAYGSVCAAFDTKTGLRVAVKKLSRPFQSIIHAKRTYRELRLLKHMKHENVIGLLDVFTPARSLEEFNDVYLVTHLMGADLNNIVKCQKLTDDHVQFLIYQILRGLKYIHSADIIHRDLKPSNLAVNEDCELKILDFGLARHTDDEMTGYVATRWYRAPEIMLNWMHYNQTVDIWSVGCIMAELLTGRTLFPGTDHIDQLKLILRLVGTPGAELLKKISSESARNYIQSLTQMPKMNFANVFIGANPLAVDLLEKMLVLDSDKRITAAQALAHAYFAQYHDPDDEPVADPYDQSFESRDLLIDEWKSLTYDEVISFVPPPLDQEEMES
NEK1 (human), sequence (Q96PY6 whole entry, looked up): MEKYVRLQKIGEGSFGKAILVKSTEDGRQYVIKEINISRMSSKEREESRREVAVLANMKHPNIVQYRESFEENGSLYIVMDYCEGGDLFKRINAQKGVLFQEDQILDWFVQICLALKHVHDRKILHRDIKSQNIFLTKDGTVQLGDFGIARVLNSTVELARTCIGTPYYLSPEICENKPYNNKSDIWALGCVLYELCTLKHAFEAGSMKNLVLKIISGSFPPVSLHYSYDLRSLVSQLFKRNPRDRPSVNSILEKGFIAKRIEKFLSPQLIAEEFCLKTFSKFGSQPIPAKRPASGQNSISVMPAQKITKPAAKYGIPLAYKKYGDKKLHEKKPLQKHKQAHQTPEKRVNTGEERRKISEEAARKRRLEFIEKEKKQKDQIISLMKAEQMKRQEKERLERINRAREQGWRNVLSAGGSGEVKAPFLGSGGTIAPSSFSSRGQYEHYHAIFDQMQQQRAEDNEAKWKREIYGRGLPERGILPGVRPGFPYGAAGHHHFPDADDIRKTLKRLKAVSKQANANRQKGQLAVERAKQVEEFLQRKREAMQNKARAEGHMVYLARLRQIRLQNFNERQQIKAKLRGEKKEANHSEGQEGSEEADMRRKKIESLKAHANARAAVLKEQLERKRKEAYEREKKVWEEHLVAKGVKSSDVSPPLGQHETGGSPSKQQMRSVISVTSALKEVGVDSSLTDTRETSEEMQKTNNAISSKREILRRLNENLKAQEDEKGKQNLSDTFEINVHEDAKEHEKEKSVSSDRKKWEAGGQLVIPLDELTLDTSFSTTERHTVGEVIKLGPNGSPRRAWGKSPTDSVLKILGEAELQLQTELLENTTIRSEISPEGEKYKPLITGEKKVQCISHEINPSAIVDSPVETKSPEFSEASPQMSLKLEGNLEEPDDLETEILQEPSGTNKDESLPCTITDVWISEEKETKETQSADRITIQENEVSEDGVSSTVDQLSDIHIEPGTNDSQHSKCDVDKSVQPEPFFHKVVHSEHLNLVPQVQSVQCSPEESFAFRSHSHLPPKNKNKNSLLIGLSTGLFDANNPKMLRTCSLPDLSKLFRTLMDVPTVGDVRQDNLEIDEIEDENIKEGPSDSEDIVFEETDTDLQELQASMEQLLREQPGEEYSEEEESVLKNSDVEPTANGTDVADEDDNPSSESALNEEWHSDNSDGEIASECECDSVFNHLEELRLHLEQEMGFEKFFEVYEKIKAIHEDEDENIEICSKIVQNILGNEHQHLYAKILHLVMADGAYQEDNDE
STK11 (human), sequence (Q15831 whole entry, looked up): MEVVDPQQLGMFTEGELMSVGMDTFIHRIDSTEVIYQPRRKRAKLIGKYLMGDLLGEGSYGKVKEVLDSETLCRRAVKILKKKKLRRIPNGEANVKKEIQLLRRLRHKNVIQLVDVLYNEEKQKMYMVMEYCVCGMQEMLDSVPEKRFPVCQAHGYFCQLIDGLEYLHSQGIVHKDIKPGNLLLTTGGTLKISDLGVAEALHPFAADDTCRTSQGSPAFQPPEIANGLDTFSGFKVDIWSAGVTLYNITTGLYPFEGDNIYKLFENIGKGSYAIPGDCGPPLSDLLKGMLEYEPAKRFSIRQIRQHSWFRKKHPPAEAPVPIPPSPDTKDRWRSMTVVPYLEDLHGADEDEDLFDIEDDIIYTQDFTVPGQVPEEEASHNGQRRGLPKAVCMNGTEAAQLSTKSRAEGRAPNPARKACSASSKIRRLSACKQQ
PIK3CD (human), sequence (O00329 whole entry, looked up): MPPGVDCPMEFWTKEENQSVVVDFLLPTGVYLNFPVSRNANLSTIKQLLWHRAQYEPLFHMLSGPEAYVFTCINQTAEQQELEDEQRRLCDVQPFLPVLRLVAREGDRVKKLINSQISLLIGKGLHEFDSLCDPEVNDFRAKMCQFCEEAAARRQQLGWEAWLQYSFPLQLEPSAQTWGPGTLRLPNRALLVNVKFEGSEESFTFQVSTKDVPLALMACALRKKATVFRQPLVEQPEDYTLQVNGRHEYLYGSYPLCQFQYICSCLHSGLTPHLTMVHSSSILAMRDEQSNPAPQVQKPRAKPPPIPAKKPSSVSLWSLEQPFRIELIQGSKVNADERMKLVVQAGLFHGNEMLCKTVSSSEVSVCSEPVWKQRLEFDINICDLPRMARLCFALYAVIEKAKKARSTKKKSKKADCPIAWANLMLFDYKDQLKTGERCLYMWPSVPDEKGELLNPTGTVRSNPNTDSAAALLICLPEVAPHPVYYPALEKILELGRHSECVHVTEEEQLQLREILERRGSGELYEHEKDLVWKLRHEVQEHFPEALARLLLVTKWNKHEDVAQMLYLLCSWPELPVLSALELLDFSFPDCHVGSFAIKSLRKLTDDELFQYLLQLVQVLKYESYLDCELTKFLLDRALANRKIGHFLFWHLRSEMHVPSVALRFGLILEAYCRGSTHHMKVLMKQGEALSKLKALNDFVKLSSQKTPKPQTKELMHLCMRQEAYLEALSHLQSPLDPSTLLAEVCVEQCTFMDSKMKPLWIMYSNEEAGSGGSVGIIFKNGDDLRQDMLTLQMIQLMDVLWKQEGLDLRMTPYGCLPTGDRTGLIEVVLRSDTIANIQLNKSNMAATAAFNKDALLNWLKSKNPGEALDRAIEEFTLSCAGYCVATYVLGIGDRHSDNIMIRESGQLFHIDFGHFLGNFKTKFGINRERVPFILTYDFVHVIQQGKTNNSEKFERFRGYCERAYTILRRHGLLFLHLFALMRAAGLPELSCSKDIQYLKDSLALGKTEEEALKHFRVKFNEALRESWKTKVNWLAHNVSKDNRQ
PIM1 (human), sequence (P11309 whole entry, looked up): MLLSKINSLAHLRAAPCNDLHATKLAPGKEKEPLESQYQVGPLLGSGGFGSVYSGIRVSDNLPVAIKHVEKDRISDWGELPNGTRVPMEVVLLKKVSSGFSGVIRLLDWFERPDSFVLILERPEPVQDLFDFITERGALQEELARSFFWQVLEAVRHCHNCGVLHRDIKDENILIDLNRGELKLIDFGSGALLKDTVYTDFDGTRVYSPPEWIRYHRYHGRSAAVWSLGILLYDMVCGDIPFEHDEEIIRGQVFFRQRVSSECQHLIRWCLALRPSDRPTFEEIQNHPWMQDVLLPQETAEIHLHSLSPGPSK
RPS6KA4 KD1 (human), sequence (O75676 whole entry, looked up): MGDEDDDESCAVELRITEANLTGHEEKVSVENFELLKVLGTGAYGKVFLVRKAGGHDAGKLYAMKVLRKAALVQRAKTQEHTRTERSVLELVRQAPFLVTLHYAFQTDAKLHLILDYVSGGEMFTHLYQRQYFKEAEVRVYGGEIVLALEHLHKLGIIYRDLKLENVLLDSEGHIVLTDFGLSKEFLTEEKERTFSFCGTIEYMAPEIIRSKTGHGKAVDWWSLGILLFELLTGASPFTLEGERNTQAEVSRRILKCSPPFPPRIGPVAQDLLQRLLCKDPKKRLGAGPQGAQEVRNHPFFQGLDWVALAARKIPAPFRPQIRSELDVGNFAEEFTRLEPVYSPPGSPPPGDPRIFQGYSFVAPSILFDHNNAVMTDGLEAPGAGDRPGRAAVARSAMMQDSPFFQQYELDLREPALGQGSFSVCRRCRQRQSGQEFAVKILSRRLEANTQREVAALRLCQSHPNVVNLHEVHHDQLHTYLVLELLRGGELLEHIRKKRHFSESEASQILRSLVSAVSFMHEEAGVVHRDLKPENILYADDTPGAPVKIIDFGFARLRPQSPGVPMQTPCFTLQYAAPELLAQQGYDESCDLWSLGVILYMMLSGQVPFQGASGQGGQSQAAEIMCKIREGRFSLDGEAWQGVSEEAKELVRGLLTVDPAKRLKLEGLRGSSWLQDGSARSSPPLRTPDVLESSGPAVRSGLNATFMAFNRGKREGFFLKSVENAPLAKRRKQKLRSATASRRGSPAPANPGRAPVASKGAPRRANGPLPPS
CSNK1G3 (human), sequence (Q9Y6M4 whole entry, looked up): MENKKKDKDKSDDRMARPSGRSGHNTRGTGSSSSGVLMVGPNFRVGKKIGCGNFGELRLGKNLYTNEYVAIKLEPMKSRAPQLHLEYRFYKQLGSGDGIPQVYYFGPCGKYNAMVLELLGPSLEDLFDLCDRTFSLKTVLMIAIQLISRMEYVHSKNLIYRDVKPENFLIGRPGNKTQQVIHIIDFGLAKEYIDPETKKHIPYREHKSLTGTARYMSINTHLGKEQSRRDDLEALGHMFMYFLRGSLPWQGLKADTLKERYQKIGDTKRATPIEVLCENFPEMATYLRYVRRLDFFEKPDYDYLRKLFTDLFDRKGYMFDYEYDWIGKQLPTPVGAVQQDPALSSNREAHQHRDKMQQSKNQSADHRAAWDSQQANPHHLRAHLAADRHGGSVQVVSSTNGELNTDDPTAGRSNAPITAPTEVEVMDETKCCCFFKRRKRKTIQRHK
DAPK2 (human), sequence (Q9UIK4 whole entry, looked up): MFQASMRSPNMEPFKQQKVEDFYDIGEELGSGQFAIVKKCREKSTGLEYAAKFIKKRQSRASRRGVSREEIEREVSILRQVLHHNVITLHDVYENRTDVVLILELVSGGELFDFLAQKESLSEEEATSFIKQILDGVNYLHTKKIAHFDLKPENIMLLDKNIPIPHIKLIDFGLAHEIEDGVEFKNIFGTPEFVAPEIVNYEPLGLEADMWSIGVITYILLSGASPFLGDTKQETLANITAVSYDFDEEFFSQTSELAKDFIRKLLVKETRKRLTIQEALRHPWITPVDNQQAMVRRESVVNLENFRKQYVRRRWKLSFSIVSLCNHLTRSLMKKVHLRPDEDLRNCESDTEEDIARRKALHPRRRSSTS

SMILES	kinase still bound, per cent of control [2] [%]	kinase still bound, per cent of control [4] [%]	kinase still bound, per cent of control [6] [%]	kinase still bound, per cent of control [7] [%]	kinase still bound, per cent of control [8] [%]	kinase still bound, per cent of control [9] [%]	kinase still bound, per cent of control [10] [%]	kinase still bound, per cent of control [12] [%]	kinase still bound, per cent of control [13] [%]	kinase still bound, per cent of control [15] [%]	kinase still bound, per cent of control [16] [%]	kinase still bound, per cent of control [17] [%]	kinase still bound, per cent of control [18] [%]	kinase still bound, per cent of control [19] [%]	kinase still bound, per cent of control [20] [%]	kinase still bound, per cent of control [21] [%]	kinase still bound, per cent of control [22] [%]	kinase still bound, per cent of control [23] [%]	kinase still bound, per cent of control [24] [%]	kinase still bound, per cent of control [25] [%]	also measured
C=CC(=O)Nc1ccc(CN(C(=O)Nc2c(Cl)c(OC)cc(OC)c2Cl)c2cc(Nc3ccc(N4CCN(C)CC4)cc3)ncn2)cc1	0.3	100	100	13	100	100	100	100	100	100	100	100	100	100	100	100	5.6	100	100	12	kinase still bound, per cent of control [1]: 5.8%; kinase still bound, per cent of control [3]: 100%; kinase still bound, per cent of control [5]: 2.3%; kinase still bound, per cent of control [11]: 100%; kinase still bound, per cent of control [14]: 100%; kinase still bound, per cent of control [26]: 100%; kinase still bound, per cent of control [27]: 16%; kinase still bound, per cent of control [28]: 100%; kinase still bound, per cent of control [29]: 100%; kinase still bound, per cent of control [30]: 100%; kinase still bound, per cent of control [31]: 13%; kinase still bound, per cent of control [32]: 100%
CS(=O)(=O)N1CCN(Cc2cc3nc(-c4cccc5[nH]ncc45)nc(N4CCOCC4)c3s2)CC1	100	100	100	100	100	100	100	100	100	100	100	100	100	100	100	100	100	100	100	100	kinase still bound, per cent of control [1]: 100%; kinase still bound, per cent of control [33]: 100%; kinase still bound, per cent of control [3]: 100%; kinase still bound, per cent of control [5]: 100%; kinase still bound, per cent of control [11]: 100%; kinase still bound, per cent of control [34]: 100%; kinase still bound, per cent of control [35]: 100%; kinase still bound, per cent of control [14]: 5.2%; kinase still bound, per cent of control [36]: 100%; kinase still bound, per cent of control [26]: 100%; kinase still bound, per cent of control [27]: 100%; kinase still bound, per cent of control [28]: 100%; kinase still bound, per cent of control [29]: 100%; kinase still bound, per cent of control [30]: 100%; kinase still bound, per cent of control [31]: 100%; kinase still bound, per cent of control [32]: 100%
Cc1n[nH]c2ccc(-c3cncc(OC[C@@H](N)Cc4c[nH]c5ccccc45)c3)cc12	100	100	100	100	100	0.7	100	100	100	0.15	0.4	1.3	0	100	30	100	100	100	4.6	100	kinase still bound, per cent of control [1]: 29%; kinase still bound, per cent of control [14]: 100%; kinase still bound, per cent of control [26]: 1%; kinase still bound, per cent of control [27]: 5%; kinase still bound, per cent of control [28]: 100%; kinase still bound, per cent of control [29]: 100%; kinase still bound, per cent of control [30]: 19%; kinase still bound, per cent of control [31]: 100%; kinase still bound, per cent of control [32]: 100%
CCN(CC)CCCCNc1ncc2cc(-c3cc(OC)cc(OC)c3)c(NC(=O)NC(C)(C)C)nc2n1	100	100	100	100	100	100	100	100	100	100	100	100	100	100	100	100	100	100	100	100	kinase still bound, per cent of control [3]: 100%; kinase still bound, per cent of control [5]: 100%; kinase still bound, per cent of control [11]: 100%; kinase still bound, per cent of control [26]: 100%; kinase still bound, per cent of control [27]: 100%; kinase still bound, per cent of control [29]: 100%; kinase still bound, per cent of control [30]: 100%; kinase still bound, per cent of control [31]: 100%
CNC(=O)c1ccc(Nc2cc(Nc3ccccc3S(=O)(=O)C(C)C)c3cc[nH]c3n2)nc1	20	3	100	12	2.2	100	100	0.95	100	22	100	100	18	100	18	1.1	8.1	4.5	100	0.25	kinase still bound, per cent of control [1]: 4.8%; kinase still bound, per cent of control [3]: 100%; kinase still bound, per cent of control [5]: 1.8%; kinase still bound, per cent of control [11]: 28%; kinase still bound, per cent of control [14]: 100%; kinase still bound, per cent of control [26]: 100%; kinase still bound, per cent of control [27]: 0.65%; kinase still bound, per cent of control [28]: 12%; kinase still bound, per cent of control [29]: 100%; kinase still bound, per cent of control [30]: 100%; kinase still bound, per cent of control [31]: 18%; kinase still bound, per cent of control [32]: 2%
